Like-named read-outs stand apart in the source and are kept apart here.
Assays:
Test in all cases: DiscoverX KINOMEscan kinase profiling (468 assays)
Format in all cases: binding
[1] = molecular target: human kinome (Homo sapiens, UniProt P29323); details: EPHB2; 100 nM; read-out: Percent Control
How it was run: (§1)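 DNA-tagged kinases competed for immobilized biotinylated ligands on streptavidin magnetic beads, with bound kinase quantified by qPCR. VIP152 in DMSO was tested against a DMSO control.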

[2] = molecular target: human kinome (Homo sapiens, UniProt P08581); details: MET; 100 nM; read-out: Percent Control
How it was run: as §1

[3] = molecular target: human kinome (Homo sapiens, UniProt Q9Y3S1); details: kinase WNK2 (Entrez WNK2); compound concentration 1000 nM; read-out: Percent Control
How it was run: as §1

[4] = molecular target: human kinome (Homo sapiens, UniProt P11802); details: 100 nM, read-out: Percent Control
How it was run: as §1

[5] = molecular target: human kinome (Homo sapiens, UniProt P51451); details: BLK; 100 nM; read-out: Percent Control
How it was run: as §1

[6] = molecular target: human kinome (Homo sapiens, UniProt P36896); details: ACVR1B; 100 nM; read-out: Percent Control
How it was run: as §1

[7] = molecular target: human kinome (Homo sapiens, UniProt Q9H1R3); details: read-out: Percent Control
How it was run: as §1

[8] = molecular target: human kinome (Homo sapiens, UniProt P24723); details: read-out: Percent Control
How it was run: as §1

[9] = molecular target: human kinome (Homo sapiens, UniProt P32298); details: GRK4; 100 nM; read-out: Percent Control
How it was run: as §1

[10] = molecular target: human kinome (Homo sapiens, UniProt Q16620); details: kinase TRKB (Entrez NTRK2); compound concentration 1000 nM; read-out: Percent Control
How it was run: as §1

[11] = molecular target: human kinome (Homo sapiens, UniProt Q9UIK4); details: DAPK2; 100 nM; read-out: Percent Control
How it was run: as §1

[12] = molecular target: human kinome (Homo sapiens, UniProt Q13627); details: DYRK1A; 100 nM; read-out: Percent Control
How it was run: as §1

[13] = molecular target: human kinome (Homo sapiens, UniProt P49336); details: CDK8; 100 nM; read-out: Percent Control
How it was run: as §1

[14] = molecular target: human kinome (Homo sapiens, UniProt P42681); details: kinase TXK (Entrez TXK); compound concentration 1000 nM; read-out: Percent Control
How it was run: as §1

[15] = molecular target: human kinome (Homo sapiens, UniProt P42336, H1047Y); details: read-out: Percent Control
How it was run: as §1

[16] = molecular target: human kinome (Homo sapiens, UniProt Q15208); details: read-out: Percent Control
How it was run: as §1

[17] = molecular target: human kinome (Homo sapiens, UniProt Q9Y2K2); details: read-out: Percent Control
How it was run: as §1

[18] = molecular target: human kinome (Homo sapiens, UniProt Q9UEE5); details: DRAK1 (Entrez STK17A); 100 nM; read-out: Percent Control
How it was run: as §1

[19] = molecular target: human kinome (Homo sapiens, UniProt Q9NYY3); details: read-out: Percent Control
How it was run: as §1

[20] = molecular target: human kinome (Homo sapiens, UniProt Q9UM73, C1156Y); details: ALK(C1156Y); 100 nM; read-out: Percent Control
How it was run: as §1

[21] = molecular target: human kinome (Homo sapiens, UniProt Q16512); details: read-out: Percent Control
How it was run: as §1

[22] = molecular target: human kinome (Homo sapiens, UniProt P07949, M918T); details: kinase RET(M918T) (Entrez RET); compound concentration 1000 nM; read-out: Percent Control
How it was run: as §1

[23] = molecular target: human kinome (Homo sapiens, UniProt P36888, R834Q); details: FLT3(R834Q); 100 nM; read-out: Percent Control
How it was run: as §1

[24] = molecular target: human kinome (Homo sapiens, UniProt Q9Y243); details: AKT3; 100 nM; read-out: Percent Control
How it was run: as §1

[25] = molecular target: human kinome (Homo sapiens, UniProt P0C264); details: kinase SgK110 (Entrez SgK110); compound concentration 1000 nM; read-out: Percent Control
How it was run: as §1

[26] = molecular target: human kinome (Homo sapiens, UniProt Q8NI60); details: ADCK3 (Entrez CABC1); 100 nM; read-out: Percent Control
How it was run: as §1

[27] = molecular target: human kinome (Homo sapiens, UniProt P06239); details: LCK; 100 nM; read-out: Percent Control
How it was run: as §1

[28] = molecular target: human kinome (Homo sapiens, UniProt Q8WU08); details: kinase YANK1 (Entrez STK32A); compound concentration 1000 nM; read-out: Percent Control
How it was run: as §1

[29] = molecular target: human kinome (Homo sapiens, UniProt O00329); details: read-out: Percent Control
How it was run: as §1

human kinome (Homo sapiens, UniProt P11802), sequence (P11802 whole entry): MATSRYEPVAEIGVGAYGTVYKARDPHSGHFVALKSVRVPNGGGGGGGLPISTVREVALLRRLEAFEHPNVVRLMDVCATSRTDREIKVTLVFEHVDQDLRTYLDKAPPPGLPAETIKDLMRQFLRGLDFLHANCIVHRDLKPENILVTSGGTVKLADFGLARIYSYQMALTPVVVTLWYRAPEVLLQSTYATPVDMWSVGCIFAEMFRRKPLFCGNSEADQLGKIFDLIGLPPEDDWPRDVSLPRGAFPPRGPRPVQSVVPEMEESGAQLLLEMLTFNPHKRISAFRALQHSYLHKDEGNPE
human kinome (Homo sapiens, UniProt Q16512), sequence (Q16512 whole entry): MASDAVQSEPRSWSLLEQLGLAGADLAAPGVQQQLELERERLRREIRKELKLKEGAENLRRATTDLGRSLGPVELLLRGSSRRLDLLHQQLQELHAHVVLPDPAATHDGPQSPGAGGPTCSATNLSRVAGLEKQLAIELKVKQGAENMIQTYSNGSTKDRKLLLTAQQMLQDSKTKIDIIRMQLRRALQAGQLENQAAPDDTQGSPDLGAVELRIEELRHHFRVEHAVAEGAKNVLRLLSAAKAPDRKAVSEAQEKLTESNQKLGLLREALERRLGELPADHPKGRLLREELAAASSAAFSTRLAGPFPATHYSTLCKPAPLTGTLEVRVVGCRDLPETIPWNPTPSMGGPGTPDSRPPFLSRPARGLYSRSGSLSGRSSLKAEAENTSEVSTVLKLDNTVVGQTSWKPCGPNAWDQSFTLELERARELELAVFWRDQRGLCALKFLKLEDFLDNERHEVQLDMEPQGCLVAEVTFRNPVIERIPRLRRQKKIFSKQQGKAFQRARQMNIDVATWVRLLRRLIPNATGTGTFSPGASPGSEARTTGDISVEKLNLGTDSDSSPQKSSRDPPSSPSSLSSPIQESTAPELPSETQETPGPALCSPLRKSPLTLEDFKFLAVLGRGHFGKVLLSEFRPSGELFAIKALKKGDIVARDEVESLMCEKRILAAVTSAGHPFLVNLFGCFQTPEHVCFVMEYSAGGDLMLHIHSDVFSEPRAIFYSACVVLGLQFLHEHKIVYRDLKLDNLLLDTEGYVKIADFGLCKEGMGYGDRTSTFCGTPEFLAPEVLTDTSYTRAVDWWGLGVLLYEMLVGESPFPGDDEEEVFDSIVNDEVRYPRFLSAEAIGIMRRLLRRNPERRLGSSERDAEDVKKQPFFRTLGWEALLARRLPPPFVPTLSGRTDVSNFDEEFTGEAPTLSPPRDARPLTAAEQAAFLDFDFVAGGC
human kinome (Homo sapiens, UniProt Q9H1R3), sequence (Q9H1R3 whole entry): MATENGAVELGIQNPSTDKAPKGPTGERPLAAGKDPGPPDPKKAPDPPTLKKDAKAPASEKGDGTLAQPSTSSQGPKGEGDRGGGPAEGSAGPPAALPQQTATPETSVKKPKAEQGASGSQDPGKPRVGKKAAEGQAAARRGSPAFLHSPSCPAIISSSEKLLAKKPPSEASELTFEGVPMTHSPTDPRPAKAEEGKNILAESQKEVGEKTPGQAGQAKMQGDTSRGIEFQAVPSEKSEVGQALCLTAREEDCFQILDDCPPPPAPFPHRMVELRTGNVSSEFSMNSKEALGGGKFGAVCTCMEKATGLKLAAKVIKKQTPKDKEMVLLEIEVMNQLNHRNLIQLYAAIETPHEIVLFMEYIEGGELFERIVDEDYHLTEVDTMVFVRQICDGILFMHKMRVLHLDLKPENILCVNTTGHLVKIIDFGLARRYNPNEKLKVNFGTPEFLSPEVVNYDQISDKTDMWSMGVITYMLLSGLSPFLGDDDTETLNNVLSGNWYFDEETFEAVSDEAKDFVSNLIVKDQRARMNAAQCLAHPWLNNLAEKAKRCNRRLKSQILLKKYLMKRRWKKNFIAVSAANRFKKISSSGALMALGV
human kinome (Homo sapiens, UniProt P24723), sequence (P24723 whole entry): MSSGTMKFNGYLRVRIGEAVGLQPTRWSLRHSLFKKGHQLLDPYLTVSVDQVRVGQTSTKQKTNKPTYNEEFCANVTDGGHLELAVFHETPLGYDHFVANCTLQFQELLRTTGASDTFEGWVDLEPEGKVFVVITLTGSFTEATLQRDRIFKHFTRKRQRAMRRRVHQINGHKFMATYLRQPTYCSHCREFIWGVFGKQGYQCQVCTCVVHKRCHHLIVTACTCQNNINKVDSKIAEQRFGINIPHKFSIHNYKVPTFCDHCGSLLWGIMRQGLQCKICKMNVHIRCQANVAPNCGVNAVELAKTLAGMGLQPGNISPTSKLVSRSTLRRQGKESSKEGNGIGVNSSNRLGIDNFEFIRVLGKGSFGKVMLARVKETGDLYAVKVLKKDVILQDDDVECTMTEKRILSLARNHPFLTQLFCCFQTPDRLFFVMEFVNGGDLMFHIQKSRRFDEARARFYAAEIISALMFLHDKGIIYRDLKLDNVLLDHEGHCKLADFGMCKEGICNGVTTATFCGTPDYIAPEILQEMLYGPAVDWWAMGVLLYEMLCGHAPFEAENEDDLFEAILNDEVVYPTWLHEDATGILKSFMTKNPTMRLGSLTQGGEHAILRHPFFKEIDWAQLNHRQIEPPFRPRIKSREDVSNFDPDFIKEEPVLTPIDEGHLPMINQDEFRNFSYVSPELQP
human kinome (Homo sapiens, UniProt O00329), sequence (O00329 whole entry): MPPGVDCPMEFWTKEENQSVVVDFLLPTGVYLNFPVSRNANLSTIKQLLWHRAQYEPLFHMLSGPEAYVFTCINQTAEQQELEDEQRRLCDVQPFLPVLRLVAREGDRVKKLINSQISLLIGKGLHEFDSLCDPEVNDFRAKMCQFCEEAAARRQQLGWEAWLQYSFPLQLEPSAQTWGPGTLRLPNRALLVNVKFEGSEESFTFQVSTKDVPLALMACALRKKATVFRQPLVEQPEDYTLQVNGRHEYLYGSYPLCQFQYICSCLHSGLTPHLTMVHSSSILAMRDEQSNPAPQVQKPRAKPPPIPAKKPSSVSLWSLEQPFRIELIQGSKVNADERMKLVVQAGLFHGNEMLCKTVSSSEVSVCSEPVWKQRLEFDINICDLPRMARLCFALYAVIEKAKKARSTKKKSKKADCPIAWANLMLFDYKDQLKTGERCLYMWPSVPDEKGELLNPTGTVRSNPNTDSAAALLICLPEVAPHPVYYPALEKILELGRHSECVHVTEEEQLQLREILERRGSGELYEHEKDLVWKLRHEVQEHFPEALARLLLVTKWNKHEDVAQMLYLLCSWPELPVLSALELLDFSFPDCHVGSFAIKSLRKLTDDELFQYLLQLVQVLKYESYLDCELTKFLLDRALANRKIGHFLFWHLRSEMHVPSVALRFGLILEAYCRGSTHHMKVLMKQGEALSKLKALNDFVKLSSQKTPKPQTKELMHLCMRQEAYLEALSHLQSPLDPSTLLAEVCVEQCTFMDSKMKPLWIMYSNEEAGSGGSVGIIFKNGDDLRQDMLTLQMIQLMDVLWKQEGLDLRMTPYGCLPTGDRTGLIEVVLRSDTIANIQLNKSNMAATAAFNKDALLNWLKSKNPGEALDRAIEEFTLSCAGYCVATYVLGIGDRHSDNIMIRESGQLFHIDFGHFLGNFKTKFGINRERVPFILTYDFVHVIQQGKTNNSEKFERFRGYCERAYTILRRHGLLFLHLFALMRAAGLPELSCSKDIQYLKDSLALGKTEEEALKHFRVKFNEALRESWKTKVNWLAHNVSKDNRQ
human kinome (Homo sapiens, UniProt Q9NYY3), sequence (Q9NYY3 whole entry): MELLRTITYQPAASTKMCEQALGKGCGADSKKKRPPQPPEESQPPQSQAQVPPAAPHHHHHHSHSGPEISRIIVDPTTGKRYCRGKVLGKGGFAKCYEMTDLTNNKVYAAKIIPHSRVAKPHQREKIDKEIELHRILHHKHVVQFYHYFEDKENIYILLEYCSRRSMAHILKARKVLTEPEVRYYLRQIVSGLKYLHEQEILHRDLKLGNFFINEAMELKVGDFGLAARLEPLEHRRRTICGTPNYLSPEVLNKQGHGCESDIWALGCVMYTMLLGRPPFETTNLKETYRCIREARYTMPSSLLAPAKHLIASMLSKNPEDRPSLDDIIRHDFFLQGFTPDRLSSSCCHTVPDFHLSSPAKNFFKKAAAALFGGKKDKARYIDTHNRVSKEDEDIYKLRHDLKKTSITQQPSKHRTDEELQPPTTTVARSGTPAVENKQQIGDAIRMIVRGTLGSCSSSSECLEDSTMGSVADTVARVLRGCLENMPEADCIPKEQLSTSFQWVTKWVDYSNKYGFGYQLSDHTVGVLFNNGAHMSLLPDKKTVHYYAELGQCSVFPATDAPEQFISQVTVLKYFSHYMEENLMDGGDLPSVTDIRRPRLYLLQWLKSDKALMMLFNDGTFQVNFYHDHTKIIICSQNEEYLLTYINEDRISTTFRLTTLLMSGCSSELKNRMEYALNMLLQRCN
human kinome (Homo sapiens, UniProt Q15208), sequence (Q15208 whole entry): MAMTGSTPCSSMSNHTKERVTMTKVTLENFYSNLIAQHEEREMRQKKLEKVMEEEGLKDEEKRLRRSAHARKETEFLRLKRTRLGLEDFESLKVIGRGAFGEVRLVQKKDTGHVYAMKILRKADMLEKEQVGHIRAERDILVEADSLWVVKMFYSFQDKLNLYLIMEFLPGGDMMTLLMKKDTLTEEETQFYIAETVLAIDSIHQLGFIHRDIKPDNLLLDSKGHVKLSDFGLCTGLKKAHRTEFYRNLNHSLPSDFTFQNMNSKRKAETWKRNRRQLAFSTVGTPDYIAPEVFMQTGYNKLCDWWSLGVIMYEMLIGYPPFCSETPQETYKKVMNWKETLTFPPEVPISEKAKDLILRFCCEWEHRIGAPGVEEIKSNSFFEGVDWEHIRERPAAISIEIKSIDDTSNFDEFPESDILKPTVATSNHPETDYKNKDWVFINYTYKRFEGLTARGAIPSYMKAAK

Structure (SMILES): COc1cc(F)ccc1-c1cc(Nc2cc(CS(C)(=N)=O)ccn2)ncc1F (stereo not drawn) [VIP152]
- remaining binding at 0.1 µM [1]: 100%
- remaining binding at 0.1 µM [2]: 57%
- remaining binding at 1 µM [3]: 85%
- remaining binding at 0.1 µM ([4]; CDK4-cyclinD1): 85%
- remaining binding at 0.1 µM ([4]; CDK4-cyclinD3): 92%
- remaining binding at 0.1 µM ([4]; CDK4): 100%
- remaining binding at 0.1 µM [5]: 100%
- remaining binding at 0.1 µM [6]: 100%
- remaining binding at 0.1 µM ([7]; MYLK2, 100 nM): 100%
- remaining binding at 1 µM ([7]; kinase MYLK2 (Entrez MYLK2), compound concentration 1000 nM): 91%
- remaining binding at 0.1 µM ([8]; PRKCH, 100 nM): 100%
- remaining binding at 1 µM ([8]; kinase PRKCH (Entrez PRKCH), compound concentration 1000 nM): 94%
- remaining binding at 0.1 µM [9]: 88%
- remaining binding at 1 µM [10]: 30%
- remaining binding at 0.1 µM [11]: 100%
- remaining binding at 0.1 µM [12]: 64%
- remaining binding at 0.1 µM [13]: 100%
- remaining binding at 1 µM [14]: 83%
- remaining binding at 0.1 µM ([15]; PIK3CA(H1047Y), 100 nM): 74%
- remaining binding at 1 µM ([15]; kinase PIK3CA(H1047Y) (Entrez PIK3CA), compound concentration 1000 nM): 85%
- remaining binding at 0.1 µM ([16]; NDR1 (Entrez STK38), 100 nM): 100%
- remaining binding at 1 µM ([16]; kinase NDR1 (Entrez STK38), compound concentration 1000 nM): 93%
- remaining binding at 0.1 µM ([17]; QSK (Entrez KIAA0999), 100 nM): 100%
- remaining binding at 1 µM ([17]; kinase QSK (Entrez KIAA0999), compound concentration 1000 nM): 98%
- remaining binding at 0.1 µM [18]: 100%
- remaining binding at 0.1 µM ([19]; PLK2, 100 nM): 100%
- remaining binding at 1 µM ([19]; kinase PLK2 (Entrez PLK2), compound concentration 1000 nM): 83%
- remaining binding at 0.1 µM [20]: 100%
- remaining binding at 0.1 µM ([21]; PKN1, 100 nM): 100%
- remaining binding at 1 µM ([21]; kinase PKN1 (Entrez PKN1), compound concentration 1000 nM): 88%
- remaining binding at 1 µM [22]: 73%
- remaining binding at 0.1 µM [23]: 100%
- remaining binding at 0.1 µM [24]: 100%
- remaining binding at 1 µM [25]: 100%
- remaining binding at 0.1 µM [26]: 100%
- remaining binding at 0.1 µM [27]: 100%
- remaining binding at 1 µM [28]: 97%
- remaining binding at 0.1 µM ([29]; PIK3CD, 100 nM): 100%
- remaining binding at 1 µM ([29]; kinase PIK3CD (Entrez PIK3CD), compound concentration 1000 nM): 75%

From PMC9898036, “VIP152 is a selective CDK9 inhibitor with pre-clinical in vitro and in vivo efficacy in chronic lymphocytic leukemia” (Leukemia, 2022)
